Values quoted from earlier work as cited in patent US20190151634A1, “TREATMENT OF EXCESSIVE MENSTRUAL BLOOD LOSS BY FEMININE SANITARY PRODUCTS MEDICATED WITH HEMOSTATIC AGENT” (ARSTAT, INC., priority 2011, published 2019).

Assays:
[1] = mouthwash, compared to placebo
[2] = oral, 6 g/day (EMEA review)
[3] = locally administered, without detectable plasma drug levels
[4] = after administration of an oral tablet

## NC[C@H]1CC[C@H](C(=O)O)CC1 [tranexamic acid]
After a mouth rinse
  plasma concentrations: below 2 mcg/mL
  saliva concentrations, maximum level: above 200 mcg/mL
  time saliva concentration remained at a therapeutic level: more than two hours
[4]
  drug in saliva samples: not detected
  mean drug plasma concentrations: 7000 ng/mL
[1]
  incidence of postoperative bleeding complications: reduce the incidence of postoperative bleeding complications
[2]
  risk of gastrointestinal adverse events: increased

## aprotinin
[3]
  postoperative blood loss: Reduction of the postoperative blood loss
